The values that follow come from patent publication US8344008B2 (Janssen Pharmaceutica NV, priority 2007, dated 2013).

Structures can show the parent of a compound that is named as a salt.

A word on the Ki: it is a measure of affinity in units of concentration, obtained from inhibition or displacement.

This assay deals with T1, recombinant human LTA4 hydrolase (rhLTA4H) (Homo sapiens, UniProt P09960).
T1 construct: made in house; host or cells: Spodoptera frugiperda (Sf-9) cells, baculovirus (pFastBac1)
T1 sequence (P09960 1-611): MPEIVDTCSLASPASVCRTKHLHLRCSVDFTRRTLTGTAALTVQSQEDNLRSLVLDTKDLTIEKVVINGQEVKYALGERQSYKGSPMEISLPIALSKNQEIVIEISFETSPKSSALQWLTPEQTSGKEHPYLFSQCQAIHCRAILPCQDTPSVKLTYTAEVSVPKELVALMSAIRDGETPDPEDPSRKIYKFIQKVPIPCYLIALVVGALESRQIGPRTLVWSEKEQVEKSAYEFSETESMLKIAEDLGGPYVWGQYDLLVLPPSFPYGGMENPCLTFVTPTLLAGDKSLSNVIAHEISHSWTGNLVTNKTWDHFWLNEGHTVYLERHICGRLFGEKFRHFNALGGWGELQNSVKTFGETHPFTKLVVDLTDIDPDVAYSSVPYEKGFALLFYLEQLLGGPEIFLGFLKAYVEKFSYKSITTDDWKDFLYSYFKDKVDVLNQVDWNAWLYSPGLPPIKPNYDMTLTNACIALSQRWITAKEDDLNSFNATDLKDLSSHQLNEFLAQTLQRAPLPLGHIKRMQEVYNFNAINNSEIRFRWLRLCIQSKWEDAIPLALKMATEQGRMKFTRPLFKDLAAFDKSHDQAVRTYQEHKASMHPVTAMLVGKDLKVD
Nature of the assay: Recombinant Human LTA4 Hydrolase Assay for LTA4 Hydrolase Inhibitor Activity. It counts as biochemical. Conditions: average of results obtained; LTB4 quantified by enzyme-linked immunoassay. In a few lines:
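Baculovirus/Sf-9-expressed human LTA4 hydrolase (36 ng) preincubated with compound 10 min at rt in 0.1 M potassium phosphate pH 7.4, 5 mg/mL fatty-acid-free BSA. Reaction started with 9 ng LTA4 free acid, run 10 min at rt; LTB4 measured by enzyme immunoassay, IC50 from 4-parameter fit.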

As to `NC(=O)N1[C@@H]2CC[C@H]1C[C@@H](NCCOc1ccc(Oc3nc4c(Cl)cccc4s3)cc1)C2` [Example 221, meso-endo-3-{2-[4-(4-Chloro-benzothiazol-2-yloxy)-phenoxy]-ethylamino}-8-aza-bicyclo[3.2.1]octane-8-carboxylic acid amide], the inhibitory constant (Ki) came to 802 nM. The value for `NC(=O)N1CCC2CN(Cc3ccc(Oc4nc5ccccc5s4)cc3)CC21` (stereo not drawn) [Example 135, 5-[4-(Benzothiazol-2-yloxy)-benzyl]-hexahydro-pyrrolo[3,4-b]pyrrole-1-carboxylic acid amide] was 57 nM.

Take `CC(C)(O)C(=O)N1C[C@@H]2C[C@H]1CN2CCc1ccc(Oc2nc3ccccc3s2)cc1` [Example 17, (S,S)-1-(5-{2-[4-(Benzothiazol-2-yloxy)-phenyl]-ethyl}-2,5-diaza-bicyclo[2.2.1]hept-2-yl)-2-hydroxy-2-methyl-propan-1-one]: the Ki was determined as 11 nM. `CC(=O)N1C[C@@H]2C[C@H]1CN2Cc1cccc(Oc2nc3ccccc3s2)c1` [Example 2, (S,S)-1-{5-[3-(Benzothiazol-2-yloxy)-benzyl]-2,5-diaza-bicyclo[2.2.1]hept-2-yl}-ethanone]: the inhibitory constant (Ki) was found to be 508 nM. Turning to `O=C(CO)N1C[C@@H]2C[C@H]1CN2Cc1ccc(Oc2nc3ccccc3s2)cc1` [Example 10, (S,S)-1-{5-[4-(Benzothiazol-2-yloxy)-benzyl]-2,5-diaza-bicyclo[2.2.1]hept-2-yl}-2-hydroxy-ethanone], the inhibition constant (Ki) was 10 nM.

As for `CCOC(=O)CN1CC2CN(Cc3ccc(Oc4nc5ccccc5s4)cc3)CC2C1` (stereo not drawn) [Example 155, {5-[4-(Benzothiazol-2-yloxy)-benzyl]-hexahydro-pyrrolo[3,4-c]pyrrol-2-yl}-acetic acid ethyl ester], the Ki stood at 170 nM. The value for `c1ccc2sc(Oc3ccc(CN4CC5CNCC5C4)cc3)nc2c1` (stereo not drawn) [Example 83, 2-[4-(Hexahydro-pyrrolo[3,4-c]pyrrol-2-ylmethyl)-phenoxy]-benzothiazole hydrochloride] was 55 nM; that for `CC(=O)N1CC2CCN(Cc3ccc(Oc4nc5ccccc5s4)cc3)CC2C1` (stereo not drawn) [Example 90, 1-{5-[4-(Benzothiazol-2-yloxy)-benzyl]-octahydro-pyrrolo[3,4-c]pyridin-2-yl}-ethanone] was 21 nM; that for `CC(C)(O)C(=O)N1C[C@H]2C[C@@H]1CN2Cc1ccc(Oc2nc3ccccc3s2)cc1` [Example 24, (R,R)-1-{5-[4-(Benzothiazol-2-yloxy)-benzyl]-2,5-diaza-bicyclo[2.2.1]hept-2-yl}-2-hydroxy-2-methyl-propan-1-one] was 52 nM.

In the case of `CS(=O)(=O)N[C@H]1C[C@H]2CC[C@@H](C1)N2CCc1ccc(Oc2nc3ccc(F)cc3s2)cc1` [Example 277, meso-endo-N-(8-{2-[4-(6-Fluoro-benzothiazol-2-yloxy)-phenyl]-ethyl}-8-aza-bicyclo[3.2.1]oct-3-yl)-methanesulfonamide], the inhibitory constant (Ki) was 17 nM. The value for `Cc1ccc2nc(Oc3ccc(CCN4C[C@H]5C[C@@H]4CN5S(C)(=O)=O)cc3)sc2c1` [Example 193, (R,R)-2-{4-[2-(5-Methanesulfonyl-2,5-diaza-bicyclo[2.2.1]hept-2-yl)-ethyl]-phenoxy}-6-methyl-benzothiazole] was 612 nM; that for `CC(C)(O)C(=O)N[C@H]1C[C@H]2CC[C@@H](C1)N2Cc1ccc(Oc2nc3ccccc3s2)cc1` [Example 54, meso-endo-N-{8-[4-(Benzothiazol-2-yloxy)-benzyl]-8-aza-bicyclo[3.2.1]oct-3-yl}-2-hydroxy-2-methyl-propionamide] was 4 nM; that for `NC(=O)N1C[C@@H]2C[C@H]1CN2Cc1ccc(Cc2nc3ccccc3s2)cc1` [Example 35, (S,S)-5-(4-Benzothiazol-2-ylmethyl-benzyl)-2,5-diaza-bicyclo[2.2.1]heptane-2-carboxylic acid amide] was 93 nM.

As for `CS(=O)(=O)N1C[C@H]2C[C@@H]1CN2Cc1ccc(Oc2nc3ccc(F)cc3s2)cc1` [Example 201, (R,R)-6-Fluoro-2-[4-(5-methanesulfonyl-2,5-diaza-bicyclo[2.2.1]hept-2-ylmethyl)-phenoxy]-benzothiazole], the inhibition constant Ki was determined as 145 nM. The value for `c1ccc2sc(Oc3ccc(CN4CCC5CNCC5C4)cc3)nc2c1` (stereo not drawn) [Example 85, 2-[4-(Octahydro-pyrrolo[3,4-c]pyridin-5-ylmethyl)-phenoxy]-benzothiazole hydrochloride] was 450 nM; that for `CC(=O)N1[C@@H]2CC[C@H]1C[C@H](NCc1ccc(Oc3nc4cc(F)ccc4s3)cc1)C2` [Example 165, meso-exo-1-{3-[4-(5-Fluoro-benzothiazol-2-yloxy)-benzylamino]-8-aza-bicyclo[3.2.1]oct-8-yl}-ethanone] was 414 nM; that for `CC(=O)N1CC2CN(CCc3ccc(Oc4nc5ccc(C)cc5s4)cc3)CC2C1` (stereo not drawn) [Example 148, 1-(5-{2-[4-(6-Methyl-benzothiazol-2-yloxy)-phenyl]-ethyl}-hexahydro-pyrrolo[3,4-c]pyrrol-2-yl)-ethanone] was 229 nM. The value for `CS(=O)(=O)N1C[C@H]2C[C@@H]1CN2Cc1ccc(Oc2nc3cc(Cl)ccc3s2)cc1` [Example 181, (R,R)-5-Chloro-2-[4-(5-methanesulfonyl-2,5-diaza-bicyclo[2.2.1]hept-2-ylmethyl)-phenoxy]-benzothiazole] was 1470 nM. The value for `COC(=O)CN1CC2CN(Cc3ccc(Oc4nc5ccccc5s4)cc3)CC2C1` (stereo not drawn) [Example 157, {5-[4-(Benzothiazol-2-yloxy)-benzyl]-hexahydro-pyrrolo[3,4-c]pyrrol-2-yl}-acetic acid methyl ester] was 57 nM; that for `NC(=O)N1C[C@@H]2C[C@H]1CN2Cc1cccc(Oc2nc3ccccc3s2)c1` [Example 33, (S,S)-5-[3-(Benzothiazol-2-yloxy)-benzyl]-2,5-diaza-bicyclo[2.2.1]heptane-2-carboxylic acid amide] was 164 nM. Regarding `NC(=O)N1C[C@H]2C[C@@H]1CN2Cc1ccc(Oc2nc3cccc(Cl)c3s2)cc1` [Example 196, (R,R)-5-[4-(7-Chloro-benzothiazol-2-yloxy)-benzyl]-2,5-diaza-bicyclo[2.2.1]heptane-2-carboxylic acid amide], the Ki turned out to be 793 nM. The value for `Cc1ccc2nc(Oc3ccc(OCCN[C@H]4C[C@H]5CC[C@@H](C4)N5S(C)(=O)=O)cc3)sc2c1` [Example 220, meso-endo-(8-Methanesulfonyl-8-aza-bicyclo[3.2.1]oct-3-yl)-{2-[4-(6-methyl-benzothiazol-2-yloxy)-phenoxy]-ethyl}-amine] was 445 nM; that for `CS(=O)(=O)N[C@@H]1C[C@H]2CC[C@@H](C1)N2Cc1ccc(Oc2nc3c(F)cccc3s2)cc1` [Example 188, meso-exo-N-{8-[4-(4-Fluoro-benzothiazol-2-yloxy)-benzyl]-8-aza-bicyclo[3.2.1]oct-3-yl}-methanesulfonamide] was 4 nM. Turning to `CC(=O)N1[C@@H]2CC[C@H]1C[C@H](NCCOc1ccc(Oc3nc4cccc(F)c4s3)cc1)C2` [Example 263, meso-exo-1-(3-{2[4-(7-Fluoro-benzothiazole-2-yloxy)-phenoxy]-ethylamino}8-aza-bicyclo[3.2.1]oct-8-yl)-ethanone], the Ki stood at 190 nM. The value for `NC(=O)N1C[C@@H]2CCN(Cc3ccc(Oc4nc5ccccc5s4)cc3)[C@@H]2C1` [Example 137, (S,S)-1-[4-(Benzothiazol-2-yloxy)-benzyl]-hexahydro-pyrrolo[3,4-b]pyrrole-5-carboxylic acid amide] was 18 nM; that for `c1ccc2sc(Cc3ccc(CN4C[C@@H]5C[C@H]4CN5)cc3)nc2c1` [Example 4D, (S,S)-2-[4-(2,5-Diaza-bicyclo[2.2.1]hept-2-ylmethyl)-benzyl]-benzothiazole dihydrochloride] was 260 nM. The value for `CS(=O)(=O)N[C@@H]1C[C@H]2CC[C@@H](C1)N2CCc1ccc(Oc2nc3ccc(F)cc3s2)cc1` [Example 231, meso-exo-N-(8-{2-[4-(6-Fluoro-benzothiazol-2-yloxy)-phenyl]-ethyl}-8-aza-bicyclo[3.2.1]oct-3-yl)-methanesulfonamide] was 17 nM; that for `CS(=O)(=O)N[C@H]1C[C@H]2CC[C@@H](C1)N2Cc1ccc(Oc2nc3c(Cl)cccc3s2)cc1` [Example 167, meso-endo-N-{8-[4-(4-Chloro-benzothiazol-2-yloxy)-benzyl]-8-aza-bicyclo[3.2.1]oct-3-yl}-methanesulfonamide] was 33 nM; that for `CC(=O)N1[C@@H]2CC[C@H]1C[C@@H](N(C)Cc1ccc(Oc3nc4ccccc4s3)cc1)C2` [Example 74, meso-endo-1-(3-{[4-(Benzothiazol-2-yloxy)-benzyl]-methyl-amino}-8-aza-bicyclo[3.2.1]oct-8-yl)-ethanone] was 240 nM. The value for `CC(=O)N[C@H]1C[C@H]2CC[C@@H](C1)N2Cc1ccc(Oc2nc3c(F)cccc3s2)cc1F` [Example 160, meso-endo-N-{8-[2-Fluoro-4-(4-fluoro-benzothiazol-2-yloxy)-benzyl]-8-aza-bicyclo[3.2.1]oct-3-yl}-acetamide] was 1 nM.
